Measurements published in patent US9708306B2, “Benzimidazole derivatives and preparation process and pharmaceutical uses thereof” (WUHAN LL SCIENCE AND TECHNOLOGY DEVELOPMENT CO., LTD, priority 2015, dated 2017).
Read-outs that look alike come from different tables or passages of the source.

Key:
normal rats = assay: Effect on blood pressure of normal rats by single oral administration; type: in vivo, Wistar rats; conditions: Rattus norvegicus, po, single, normal rats; for inhibition in vivo at 0.5 mg/kg / inhibition in vivo at 1 mg/kg / inhibition in vivo at 2 mg/kg: 8 h, read-out: blood pressure reduction at 8 h after the administration; for inhibition in vivo at 0.5 mg/kg / change in vivo at 0.5 mg/kg: 0.5 mg/kg p.o.; for inhibition in vivo at 1 mg/kg / change in vivo at 1 mg/kg: 1.0 mg/kg p.o.; for inhibition in vivo at 2 mg/kg / change in vivo at 2 mg/kg: 2.0 mg/kg p.o.; for change in vivo at 0.5 mg/kg / change in vivo at 1 mg/kg / change in vivo at 2 mg/kg: read-out: variations on heart rate
[1] = tested on: spontaneously hypertensive rats (SHR); assay: Effect on reducing blood pressure of spontaneously hypertensive rats (SHR) by multiple oral administrations; type: in vivo; conditions: for inhibition in vivo at 0.5 mg/kg / inhibition in vivo at 1 mg/kg / inhibition in vivo at 2 mg/kg: Rattus norvegicus; for inhibition in vivo at 0.5 mg/kg / inhibition in vivo at 1 mg/kg / inhibition in vivo at 2 mg/kg / blood pressure reduction effect compared with Azilsartan medoxomil: SHR; for blood pressure reduction effect compared with Azilsartan medoxomil / reduction effects on the heart rate of SHR rats: result in words; for reduction effects on the heart rate of SHR rats: during the whole administration
[2] = tested on: renovascular hypertensive rats; assay: Effect on reducing blood pressure of renovascular hypertensive rats by single oral administration; type: in vivo, Wistar rats; conditions: for change in vivo at 0.5 mg/kg / inhibition in vivo at 0.5 mg/kg / change in vivo at 1 mg/kg / inhibition in vivo at 1 mg/kg / change in vivo at 2 mg/kg / inhibition in vivo at 2 mg/kg: Rattus norvegicus, single oral administration; for change in vivo at 0.5 mg/kg / change in vivo at 1 mg/kg / change in vivo at 2 mg/kg: RHR, read-out: Variations on heart rate; for inhibition in vivo at 0.5 mg/kg / inhibition in vivo at 1 mg/kg / inhibition in vivo at 2 mg/kg: two-kidney one-clip RHR, measured 1-10 h, read-out: Maximum blood pressure reduction; for blood pressure reduction at 24 hours after the administration / blood pressure reduction effect compared with Azilsartan medoxomil / lasting time of the blood pressure reduction effect compared with Azilsartan medoxomil: renal artery-ligated rat; for blood pressure reduction at 24 hours after the administration: dose not stated; for blood pressure reduction effect compared with Azilsartan medoxomil / lasting time of the blood pressure reduction effect compared with Azilsartan medoxomil: result in words
[3] = 0.5 mg/kg oral once per day, 1 hour after the administration, read-out: Maximum blood pressure reduction, 1st-day administration
[4] = 0.5 mg/kg oral once per day, 1 hour after the administration, read-out: Maximum blood pressure reduction, 7th-day administration
[5] = 0.5 mg/kg oral once per day, 1 hour after the administration, read-out: Maximum blood pressure reduction, 14th-day administration
[6] = 0.5 mg/kg oral, read-out: Heart Rate (effect on reducing heart rate)
[7] = 1.0 mg/kg oral once per day, 1 hour after the administration, read-out: Maximum blood pressure reduction, 1st-day administration
[8] = 1.0 mg/kg oral once per day, 1 hour after the administration, read-out: Maximum blood pressure reduction, 7th-day administration
[9] = 1.0 mg/kg oral once per day, 1 hour after the administration, read-out: Maximum blood pressure reduction, 14th-day administration
[10] = 1.0 mg/kg oral, read-out: Heart Rate (effect on reducing heart rate)
[11] = 2.0 mg/kg oral once per day, 1 hour after the administration, read-out: Maximum blood pressure reduction, 1st-day administration
[12] = 2.0 mg/kg oral once per day, 1 hour after the administration, read-out: Maximum blood pressure reduction, 7th-day administration
[13] = 2.0 mg/kg oral once per day, 1 hour after the administration, read-out: Maximum blood pressure reduction, 14th-day administration
[14] = 2.0 mg/kg oral, read-out: Heart Rate (effect on reducing heart rate)

SMILES | inhibition in vivo at 0.5 mg/kg (normal rats) [%] | inhibition in vivo at 1 mg/kg (normal rats) [%] | inhibition in vivo at 2 mg/kg (normal rats) [%] | change in vivo at 0.5 mg/kg (normal rats) [%] | change in vivo at 1 mg/kg (normal rats) [%] | change in vivo at 2 mg/kg (normal rats) [%] | inhibition in vivo at 0.5 mg/kg [1, 3] [%] | inhibition in vivo at 0.5 mg/kg [1, 4] [%] | inhibition in vivo at 0.5 mg/kg [1, 5] [%] | inhibition in vivo at 1 mg/kg [1, 7] [%] | inhibition in vivo at 1 mg/kg [1, 8] [%] | inhibition in vivo at 1 mg/kg [1, 9] [%] | inhibition in vivo at 2 mg/kg [1, 11] [%] | inhibition in vivo at 2 mg/kg [1, 12] [%] | inhibition in vivo at 2 mg/kg [1, 13] [%] | change in vivo at 0.5 mg/kg [2] [%] | inhibition in vivo at 0.5 mg/kg [2] [%] | change in vivo at 1 mg/kg [2] [%] | inhibition in vivo at 1 mg/kg [2] [%] | change in vivo at 2 mg/kg [2] [%] | further results
CCOc1nc2cccc(C(=O)OCc3no[n+]([O-])c3C#N)c2n1Cc1ccc(-c2ccccc2-c2noc(=O)[nH]2)cc1 [QR01036] | 2.8 ± 2.1 | 5.2 ± 3.5 | 6.3 ± 2 | -1 ± 6 | -8 ± 2 | -5 ± 5 | 20 ± 5.3 | 24 ± 8.6 | 24 ± 5.9 | 35 ± 7.8 | 35 ± 4.6 | 40 ± 7.8 | 46 ± 9.2 | 45 ± 8.3 | 48 ± 7.2 | -12 ± 9 | 19 ± 3.5 | -18 ± 7 | 38 ± 4.2 | -25 ± 7 | inhibition in vivo at 0.5 mg/kg [1, 6]: 14 ± 4%; inhibition in vivo at 1 mg/kg [1, 10]: 25 ± 2%; inhibition in vivo at 2 mg/kg [1, 14]: 21 ± 3%; blood pressure reduction effect compared with Azilsartan medoxomil [1]: obviously superior to that of the Azilsartan medoxomil positive drug; reduction effects on the heart rate of SHR rats [1]: significant reduction effects on the heart rate; inhibition in vivo at 2 mg/kg [2]: 46 ± 5%; blood pressure reduction at 24 hours after the administration [2]: 24%; blood pressure reduction effect compared with Azilsartan medoxomil [2]: obviously superior to that of the Azilsartan medoxomil positive drug; lasting time of the blood pressure reduction effect compared with Azilsartan medoxomil [2]: close to that of Azilsartan medoxomil
CCOc1nc2cccc(C(=O)OC(C)OC(=O)OC(C)C)c2n1Cc1ccc(-c2ccccc2-c2noc(=O)[nH]2)cc1 (stereo not shown) [QR01003] | 5.6 ± 3.1 | 5.4 ± 1.9 | 6.4 ± 3.4 | -2 ± 2 | 4 | -3 ± 4 | 18 ± 4.6 | 21 ± 6.3 | 17 ± 6.8 | 31 ± 6.8 | 35 ± 7.3 | 36 ± 8.1 | 39 ± 5 | 41 ± 5.7 | 44 ± 6.1 | 2 | 15 ± 1.8 | -3 ± 2 | 28 ± 2.9 | -5 ± 2 | inhibition in vivo at 2 mg/kg [2]: 36 ± 4.3%; blood pressure reduction effect compared with Azilsartan medoxomil [2]: close to that of Azilsartan medoxomil
CCOc1nc2cccc(C(=O)OCc3c(-c4ccccc4)no[n+]3[O-])c2n1Cc1ccc(-c2ccccc2-c2noc(=O)[nH]2)cc1 [QR01009] | 3.1 ± 2.4 | 5.6 ± 1.9 | 4.8 ± 5.8 | -5 ± 2 | 4 | -8 ± 5 | 24 ± 6.8 | 28 ± 5.3 | 25 ± 4.9 | 42 ± 6.3 | 41 ± 5.9 | 45 ± 6.7 | 45 ± 5.6 | 48 ± 4.6 | 43 ± 7.2 | -12 ± 4 | 22 ± 2.8 | -25 ± 5 | 36 ± 3.2 | -28 ± 8 | inhibition in vivo at 0.5 mg/kg [1, 6]: 23 ± 3%; inhibition in vivo at 1 mg/kg [1, 10]: 24 ± 2%; inhibition in vivo at 2 mg/kg [1, 14]: 27 ± 5%; blood pressure reduction effect compared with Azilsartan medoxomil [1]: obviously superior to that of the Azilsartan medoxomil positive drug; reduction effects on the heart rate of SHR rats [1]: significant reduction effects on the heart rate; inhibition in vivo at 2 mg/kg [2]: 43 ± 6.7%; blood pressure reduction at 24 hours after the administration [2]: 25%; blood pressure reduction effect compared with Azilsartan medoxomil [2]: obviously superior to that of the Azilsartan medoxomil positive drug; lasting time of the blood pressure reduction effect compared with Azilsartan medoxomil [2]: close to that of Azilsartan medoxomil
CCOc1nc2cccc(C(=O)OC(C)OC(=O)OCc3nc(C)c(C)nc3C)c2n1Cc1ccc(-c2ccccc2-c2noc(=O)[nH]2)cc1 (stereo not shown) [QR01019] | 2.4 ± 3 | 4.2 ± 3.5 | 4.5 ± 6.5 | -5 ± 5 | -4 ± 6 | 8 | 16 ± 6.2 | 15 ± 7.9 | 18 ± 4.5 | 36 ± 6.3 | 38 ± 4.6 | 35 ± 6.7 | 42 ± 4.8 | 46 ± 6.7 | 48 ± 8.6 | 12 ± 4 | 24 ± 4 | 25 ± 8 | 38 ± 3.8 | 28 ± 6 | inhibition in vivo at 0.5 mg/kg [1, 6]: 20 ± 6%; inhibition in vivo at 1 mg/kg [1, 10]: 18 ± 4%; inhibition in vivo at 2 mg/kg [1, 14]: 29 ± 2%; blood pressure reduction effect compared with Azilsartan medoxomil [1]: obviously superior to that of the Azilsartan medoxomil positive drug; reduction effects on the heart rate of SHR rats [1]: significant reduction effects on the heart rate; inhibition in vivo at 2 mg/kg [2]: 45 ± 7.5%; blood pressure reduction at 24 hours after the administration [2]: 26%; blood pressure reduction effect compared with Azilsartan medoxomil [2]: obviously superior to that of the Azilsartan medoxomil positive drug; lasting time of the blood pressure reduction effect compared with Azilsartan medoxomil [2]: close to that of Azilsartan medoxomil
